From patent US5780590A, “Antithrombotic azacycloalkylalkanoyl peptides and pseudopeptides” (Rhone-Poulenc Rorer Pharmaceuticals Inc., priority 1996, dated 1998)

Legend:
[1] = tested on: ADP-induced platelet aggregation in platelet rich plasma; assay: Inhibition of ADP-Induced ex-vivo Platelet Aggregation; assay type: in vivo, mongrel dogs; conditions: dog, dose 5 mg/kg oral
Excerpt: The Platelet Aggregation Assay is based on that described in Blood 66 (4), 946-952 (1985). The Fibrinogen-Binding Assay is essentially that of Ruggeri, Z. M., et al., Proc. Natl. Acad. Sci. USA 83, 5708-5712 (1986) and Plow, E. F., et al., Proc. Natl. Acad. Sci., USA 82, 8057-8061 (1985). The Inhibition of ADP-Induced ex-vivo Platelet Aggregation assay is based on that of Zucker, "Platelet Aggregation Measured by the Photoelectric Method", Methods in Enzymology 169, 117-133 (1989).
Inhibition of ADP-Induced ex-vivo Platelet Aggregation
Control blood samples are obtained 5-10 minutes prior to administration of a test compound in mongrel dogs weighing from 10 to 20 Kg. The compound is administered intragasticly, via aqueous gavage, or orally, via gelatin capsule. […]
The blood samples are centrifuged at 1000 rpm for 10 minutes to obtain platelet rich plasma (PRP). […] Platelet count in the PRP is determined by using a Coulter Counter (Coulter Electronics, Hialeah, Fla.). […] Platelet aggregation is monitored spectrophotometrically utilizing a light transmission aggregometer (Bio/Data Platelet Aggregation Profiler, Model PAP-4, Bio/Data Corp., Horsham, Pa.). For the testing of a compound, the rate of change (slope) of light transmittance and the maximum light transmittance (maximum aggregation) is recorded in duplicate. […]

[2] = Moisture sorption isotherms; assay type: physicochemical; conditions: 25° C. (FIG. 9)
Procedure: Moisture Sorption Isotherms of hygroscopic and non-hygroscopic crystalline forms of N-[N-[N-(4-piperdin-4-yl)butanoyl)-N-ethylglycyl]-(L)-aspartyl]-(L)-β-cyclohexylalanine amide are obtained on a VTI MB300G moisture balance. The experiments are conducted either by subjecting approximately 15 mg of the subject crystalline form to increasing and decreasing steps of % RH and following the weight gain (at each equilibrium step) as a function of % RH (FIG. 9) or by holding the subject crystalline form at constant humidity and following the weight gain as a function of time.

[3] = Isothermal microcalorimetry of solid state form conversion; assay type: physicochemical; conditions: 60° C. (FIG. 8)
Procedure: Isothermal microcalorimetry experiments on hygroscopic and non-hygroscopic crystalline forms of N-[N-[N-(4-piperdin-4-yl)butanoyl)-N-ethylglycyl]-(L)-aspartyl]-(L)-β-cyclohexylalanine amide are performed on a Thermometric® Thermal Activity Monitor (TAM). Solid state conversions of the different crystalline forms are studied by exposing the forms to different humidities or solvent vapors at different temperatures. The saturated salt solutions used to obtain different humidities were: KCl (80% RH), NaCl (75% RH), and NaBr (65% RH). Approximately 100 mg quantities of the forms are weighed into a TAM glass ampule and a microhygrostate containing a saturated salt solution (with excess solid) or an organic solvent is placed inside the ampule. The ampule is sealed, equilibrated to the temperature of the experiment, and lowered into the measuring position in the TAM. An identical system containing washed sea sand, in place of the form subject to testing, is placed on the reference side. Output power ([…]) is measured as a function of time (FIGS. 6-8).

SMILES | % Inhibition of ex-vivo Platelet Aggregation After Oral Administration, 24 h [1] | % weight gain vs. % RH [2] | conversion to non-hygroscopic form at 100% RH [3]
CCN(CC(=O)N[C@@H](CC(=O)O)C(=O)N[C@@H](CC1CCCCC1)C(N)=O)C(=O)CCCC1CCNCC1 [Example 15] | 5% |  | 
CCN(CC(=O)N[C@@H](CC(=O)O)C(=O)N[C@@H](CC1CCCCC1)C(N)=O)C(=O)CCCC1CCNCC1 [hygroscopic form] |  | picks up more water than the non-hygroscopic form as the RH increases | without the liquification
